Values quoted from earlier work, collected in patent publication US20020034548A1, “STABILIZED ASCORBIC COMPOSITION” (priority 1998, published 2002).

How the values were obtained:
[1] = pH 5.0
[2] = 5% ascorbic acid solution

O=C1O[C@H]([C@@H](O)CO)C(O)=C1O [L-ascorbic acid]
redox potential [1]: +0.127 V | time to completely decay into oxidized form [2]: a few days | ascorbic acid deprotonated (2% aqueous solution at 25° C.): About 2.4% | pK1 (aqueous solution, room temperature): 4.17
